Results from US11590242B2, “Antibody-mediated autocatalytic, targeted delivery of nanocarriers to tumors” (Yale University, priority 2016, dated 2023).

Experiments:
[1] = Blood concentrations of DOX-NPs with and without 3E10^EN as a function of time; assay type: in vivo, BALB/c mice; details: 1 mg DOX-NPs i.v., coumarin 6 co-loaded, 5 min-48 h
Experimental: Blood concentrations of DOX-NPs with and without conjugation of 3E10^EN recorded as a function of time. To enable detection of NPs, NPs were co-loaded with 1% coumarin 6. Six BALB/c mice were randomly assigned to two groups, which received intravenous administration of 1 mg DOX-NPs with and without conjugation of 3E10^EN, respectively. At 5 min, 15 min, 30 min, 1 h, 2 h, 4 h, 6 h, 24 h, 36 h and 48 h post injection, 20 uL blood sample from each mouse was collected into a 1.5 mL Eppendorf tube and lyophilized. Then, 100 uL DMSO and 1 mL acetonitrile were added to each tube. After sonication in a water bath sonicator for 15 min, samples were subjected to centrifugation at 4000 rpm for 20 min to remove cellular fragments and blood albumin. Then, 0.8 ml supernatant from each sample was collected and added to an eppendorf tube. The acetonitrile was evaporated and the dye in the DMSO was quantified at Ex/Em 444/505 nm using a plate reader (BioTek ELx800).

[2] = system: Cal12T lung cancer cells; experiment: Delivery of nanoparticles into living cells (fluorescence microscopy, anti-myc immunostaining); assay type: cell-based; details: fixed cells
[3] = system: 4T1 tumors; experiment: Antitumor evaluation in mouse tumor xenografts; assay type: in vivo, mice; details: end of study, vs PBS control, i.v. three times a week
Experimental: Mice bearing 4T1 tumors were established as described above. […] Treatment was performed 3 times per week. Nanoparticles were administered at 1 mg, equal to 80 ug DOX per mouse. Tumor sizes were measured three times a week. Mice were euthanized when tumor volume reached 1000 mm^3, at which point the tumors were excised and fixed in formalin for immunohistochemistry. Serial sections were obtained and stained with hematoxylin and eosin (H&E) and Terminal Deoxynucleotidyl Transferase (TUNEL) for analysis of therapeutic effect. The growth curve was plotted using the mean of the tumor volumes for each treatment group, at each timepoint.

[4] = system: 4T1 murine breast cancer cells; experiment: Cytotoxicity evaluation, MTT assay; assay type: cell-based, mouse; details: three days treatment, listed as Free DOX
Experimental: All chemicals were purchased from Sigma-Aldrich unless otherwise noted. The mouse mammary tumor cell line 4T1 was obtained from American Type Culture Collection (ATCC) and cultured in DMEM medium (Invitrogen) supplemented with 10% fetal bovine serum (Invitrogen), 100 units/ml penicillin and 100 ug/ml streptomycin (Invitrogen), in a 37° C. incubator containing 5% CO2.
4T1 cells were plated in a 96-well cell culture plate at a concentration of 2×10^3 per well and incubated with concentrations of nanoparticles ranging from 1.25 to 500 ug/mL. The same amounts of free DOX were added to parallel wells as controls. Three days after treatment, the effect of treatments on cell proliferation was determined using the standard MTT assay.

Molecule	Circulation life of NPs [1]	Subcellular localization of di-scFv [2]	Reduction of tumor volume [3]	Effect on viability of 4T1 cells [4]
3E10^EN: enhanced di-single chain variable fragment of anti-DNA antibody 3E10 with D31N mutation, SEQ ID NO:12	did not alter the circulation life of NPs	penetrated into cell nuclei	–	–
COc1cccc2c1C(=O)c1c(O)c3c(c(O)c1C2=O)C[C@@](O)(C(=O)CO)C[C@@H]3O[C@H]1C[C@H](N)[C@H](O)[C@H](C)O1 [DOX, doxorubicin]	–	–	26%	comparable inhibition of cells
